Biological target: TLX LBD (Homo sapiens (Human), UniProt Q9Y466)
Assay: ALPHA screen assay for TLX LBD and coactivator peptide recruitment
Format: biochemical
Settings: Table 3; for Average ALPHA signal at 200 μM (std. dev.): mean (std. dev.)
Description: Assays were performed according to the manufacturer's protocol (PerkinElmer, USA), with the following modifications: Ligands were tested for TLX-coactivator binding in 50 mM phosphate buffer, 150 mM NaCl, pH 7, 1 mM DTT and 100 μM CHAPS. Ligands were dissolved and diluted in DMSO as stocks and were prepared in assay buffer from the original stock in the 100% DMSO and added to the assay plate. Biotinylated SRC peptide and polyhistidine tagged TLX LBD were diluted in assay buffer, subsequently added to respective ALPHA beads, under low light. The plates were spun down, mixed with a shaker and incubated for 120 minutes and read on a TECAN Plate reader using the manufacturer's protocol.

TLX LBD, sequence (Q9Y466 155-383): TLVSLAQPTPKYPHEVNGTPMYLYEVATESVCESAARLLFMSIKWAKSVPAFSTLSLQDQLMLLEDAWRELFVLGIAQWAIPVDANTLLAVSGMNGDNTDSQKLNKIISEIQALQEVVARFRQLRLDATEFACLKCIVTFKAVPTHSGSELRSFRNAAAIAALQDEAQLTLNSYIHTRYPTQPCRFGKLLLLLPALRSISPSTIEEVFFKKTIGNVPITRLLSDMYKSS

For `CC(C)CCNc1ncccc1C(=O)N1CCN(Cc2ccc(C(=O)O)cc2)CC1` [Compound 60], the “Average ALPHA signal at 200 μM (std. dev.)” value (“Average ALPHA signal” below) was 1.06 (0.05).
For `COC(=O)C[C@H]1[C@H](C)N(Cc2ccccc2)CCN1C(=O)c1cccnc1NCCC(C)C` [Compound 70], the EC50 was 0.00485 nM and the “Average ALPHA signal” value was 2.63 (0.01).
In the case of `CCCCN1CCN(C(=O)c2cccnc2NCCC(C)C)[C@H](C)C1` [Compound 49], the EC50 is reported as 0.0332 nM and the “Average ALPHA signal” value is reported as 3.09 (0.12).
For `COC(=O)C[C@@H]1CN(Cc2ccccc2)[C@@H](C)CN1C(=O)c1cccnc1NCCC(C)C` [Compound 74], the EC50 was 0.00982 nM and the “Average ALPHA signal” value was 2.96 (0.08).
With `CC(C)CCNc1ncccc1C(=O)N1CCN(Cc2ccccc2)[C@@H](C)[C@@H]1CC(=O)O` [Compound 78] the “Average ALPHA signal” value was 1.16 (0.03).
For `COC(=O)C[C@@H]1CN(C(=O)c2cccnc2NCCC(C)C)C[C@H](C)N1Cc1ccccc1` [Compound 61], the EC50 was 0.0152 nM and the “Average ALPHA signal” value was 2.89 (0.07).
In the case of `Cc1ccccc1CN1CCN(C(=O)c2cccnc2NCCC(C)C)[C@@H](C)C1` [Compound 31], the EC50 is reported as 0.0138 nM and the “Average ALPHA signal” value is reported as 4.52 (0.06).
`CC(C)CCNc1ncccc1C(=O)N1CCN(C)C[C@@H]1C` [Compound 38] was tested, and the “Average ALPHA signal” value was 0.85 (0.06).
With `CC(C)CNc1ncccc1C(=O)N1CCN(Cc2ccccc2)[C@@H](C)C1` [Compound 89] the “Average ALPHA signal” value was 1.98 (0.05).
For `COC(=O)c1ccccc1CN1CCN(C(=O)c2cccnc2NCCC(C)C)CC1` [Compound 55], the EC50 was 0.0412 nM and the “Average ALPHA signal” value was 2.87 (0.07).
For `COC(=O)C[C@H]1CN(C(=O)c2cccnc2NCCC(C)C)C[C@H](C)N1Cc1ccccc1` [Compound 62], the EC50 was 0.012 nM and the “Average ALPHA signal” value was 2.54 (0.08).
With `Cc1ccc(CN2CCN(C(=O)c3cccnc3NCCC(C)C)[C@@H](C)C2)cc1` [Compound 33] the EC50 was 0.0187 nM and the “Average ALPHA signal” value was 3.89 (0.21).
For `CC(C)CCNc1ncccc1C(=O)N1CCN(CCC2CCN(C(=O)OC(C)(C)C)CC2)C[C@H]1C` [Compound 53], the EC50 was 0.00904 nM and the “Average ALPHA signal” value was 2.84 (0.05).
For `CC(C)CCNc1ncccc1C(=O)N1CCN(Cc2ccc3cnccc3c2)C[C@H]1C` [Compound 52], the EC50 was 0.0261 nM and the “Average ALPHA signal” value was 2.03 (0.12).
`CC(C)Nc1ncccc1C(=O)N1CCN(Cc2ccccc2)[C@H](C)C1` [Compound 85] was tested, and the “Average ALPHA signal” value was 1.48 (0.16).
With `COc1cccc(CN2CCN(C(=O)c3cccnc3NCCC(C)C)[C@@H](C)C2)c1` [Compound 39] the EC50 was 0.0276 nM and the “Average ALPHA signal” value was 3.19 (0.17).
`CC(C)CCNc1ncccc1C(=O)N1C[C@@H](C)N(Cc2ccccc2)C[C@@H]1CC(=O)O` [Compound 84] was tested, and the “Average ALPHA signal” value was 1.09 (0.01).
For `CC(C)CCNc1ncccc1C(=O)N1CCN(Cc2ccccc2)[C@H](C)[C@@H]1CC(=O)O` [Compound 79], the “Average ALPHA signal” value was 1.23 (0.02).
For `CC(C)CCNc1ncccc1C(=O)N1CCN(Cc2ccccc2)C[C@@H]1CC(C)C` [Compound 94], the EC50 was 0.003 nM and the “Average ALPHA signal” value was 3.65 (0.10).
For `CCCCCCN1CCN(C(=O)c2cccnc2NCCC(C)C)[C@@H](C)C1` [Compound 36], the EC50 was 0.0126 nM and the “Average ALPHA signal” value was 8.78 (0.30).
`COC(=O)C[C@H]1CN(C(=O)c2cccnc2NCCC(C)C)C[C@@H](C)N1Cc1ccccc1` [Compound 63] was tested, and the EC50 was 0.0123 nM and the “Average ALPHA signal” value was 2.72 (0.05).
`Cc1ccccc1CN1CCN(C(=O)c2cccnc2NCCC(C)C)[C@H](C)C1` [Compound 43] was tested, and the “Average ALPHA signal” value was 3.49 (0.17).
`CC(C)CCNc1ncccc1C(=O)N1C[C@@H](CC(=O)O)N(Cc2ccccc2)[C@@H](C)C1` [Compound 65] was tested, and the “Average ALPHA signal” value was 0.99 (0.04).
In the case of `C[C@H]1CN(C(=O)c2cccnc2NC2CC2)CCN1Cc1ccccc1` [Compound 91], the “Average ALPHA signal” value is reported as 1.48 (0.04).
In the case of `CC(C)CCNc1ncccc1C(=O)N1CCN(Cc2c[nH]c3ccccc23)C[C@H]1C` [Compound 54], the “Average ALPHA signal” value is reported as 1.17 (0.06).
With `CCCCN1CCN(C(=O)c2cccnc2NCCC(C)C)[C@@H](C)C1` [Compound 37] the EC50 was 0.0335 nM and the “Average ALPHA signal” value was 2.30 (0.02).
For `Cc1cccc(CN2CCN(C(=O)c3cccnc3NCCC(C)C)[C@@H](C)C2)c1` [Compound 32], the EC50 was 0.0143 nM and the “Average ALPHA signal” value was 3.85 (0.09).
With `COC(=O)c1ccc(CN2CCN(C(=O)c3cccnc3NCCC(C)C)CC2)cc1` [Compound 57] the EC50 was 0.0745 nM and the “Average ALPHA signal” value was 2.54 (0.04).
For `CC(C)CCNc1ncccc1C(=O)N1CCN(Cc2ccccc2)[C@H](C)[C@H]1CC(=O)O` [Compound 80], the “Average ALPHA signal” value was 1.11 (0.07).
In the case of `CC(C)CCNc1ncccc1C(=O)N1C[C@H](CC(=O)O)N(Cc2ccccc2)[C@@H](C)C1` [Compound 66], the “Average ALPHA signal” value is reported as 0.96 (0.03).
With `COC(=O)C[C@@H]1[C@H](C)N(Cc2ccccc2)CCN1C(=O)c1cccnc1NCCC(C)C` [Compound 69] the EC50 was 0.0081 nM and the “Average ALPHA signal” value was 2.53 (0.08).
For `CC(C)CCNc1ncccc1C(=O)N1CCN(Cc2cccc(C(=O)O)c2)CC1` [Compound 59], the “Average ALPHA signal” value was 1.25 (0.09).
In the case of `Cc1cc(C(=O)N2CCN(C(c3ccccc3)c3ccccc3)CC2)nn1C` [Compound 30, reference compound], the EC50 is reported as 0.0673 nM and the “Average ALPHA signal” value is reported as 1.93 (0.08).
`COC(=O)C[C@@H]1[C@@H](C)N(Cc2ccccc2)CCN1C(=O)c1cccnc1NCCC(C)C` [Compound 72] was tested, and the “Average ALPHA signal” value was 2.51 (0.10).
In the case of `CC(C)CCNc1ncccc1C(=O)N1C[C@H](C)N(Cc2ccccc2)C[C@@H]1CC(=O)O` [Compound 81], the “Average ALPHA signal” value is reported as 1.15 (0.02).
`CC(C)CCNc1ncccc1C(=O)N1C[C@H](CC(=O)O)N(Cc2ccccc2)[C@H](C)C1` [Compound 67] was tested, and the “Average ALPHA signal” value was 0.97 (0.03).
`COC(=O)C[C@H]1CN(Cc2ccccc2)[C@H](C)CN1C(=O)c1cccnc1NCCC(C)C` [Compound 76] was tested, and the EC50 was 0.0126 nM and the “Average ALPHA signal” value was 3.09 (0.18).
`CC(C)CNc1ncccc1C(=O)N1CCN(Cc2ccccc2)[C@H](C)C1` [Compound 87] was tested, and the “Average ALPHA signal” value was 2.07 (0.03).
With `CC(C)CCNc1ncccc1C(=O)N1CCN(Cc2ccccc2)[C@@H](C)[C@H]1CC(=O)O` [Compound 77] the “Average ALPHA signal” value was 1.09 (0.06).
With `CNc1ncccc1C(=O)N1CCN(Cc2ccccc2)[C@@H](C)C1` [Compound 92] the “Average ALPHA signal” value was 1.85 (0.10).
For `CC(C)Nc1ncccc1C(=O)N1CCN(Cc2ccccc2)[C@@H](C)C1` [Compound 90], the “Average ALPHA signal” value was 1.57 (0.06).
With `CC(C)CCNc1ncccc1C(=O)N1CCN(CCC2CCN(C(=O)OC(C)(C)C)CC2)C[C@@H]1C` [Compound 41] the EC50 was 0.00585 nM and the “Average ALPHA signal” value was 2.73 (0.13).
In the case of `COc1cccc(CN2CCN(C(=O)c3cccnc3NCCC(C)C)[C@H](C)C2)c1` [Compound 51], the EC50 is reported as 0.0199 nM and the “Average ALPHA signal” value is reported as 2.98 (0.10).
In the case of `C[C@@H]1CN(C(=O)c2cccnc2NC2CC2)CCN1Cc1ccccc1` [Compound 86], the “Average ALPHA signal” value is reported as 1.35 (0.04).
In the case of `CC(C)CCNc1ncccc1C(=O)N1CCN(CCCc2ccccc2)C[C@@H]1C` [Compound 35], the EC50 is reported as 0.0128 nM and the “Average ALPHA signal” value is reported as 4.57 (0.38).
For `CC(C)CCNc1ncccc1C(=O)N1CCN(CCCc2ccccc2)C[C@H]1C` [Compound 48], the “Average ALPHA signal” value was 3.75 (0.31).
For `CC(C)CCNc1ncccc1C(=O)N1CCN(Cc2ccccn2)C[C@H]1C` [Compound 46], the “Average ALPHA signal” value was 0.86 (0.09).
`CC(C)CCNc1ncccc1C(=O)N1C[C@H](C)N(Cc2ccccc2)C[C@H]1CC(=O)O` [Compound 82] was tested, and the “Average ALPHA signal” value was 1.11 (0.02).
`COC(=O)c1cccc(CN2CCN(C(=O)c3cccnc3NCCC(C)C)CC2)c1` [Compound 56] was tested, and the EC50 was 0.0442 nM and the “Average ALPHA signal” value was 2.74 (0.08).
In the case of `COC(=O)C[C@@H]1CN(Cc2ccccc2)[C@H](C)CN1C(=O)c1cccnc1NCCC(C)C` [Compound 75], the EC50 is reported as 0.00794 nM and the “Average ALPHA signal” value is reported as 2.65 (0.04).
`CC(C)CCNc1ncccc1C(=O)N1CCN(Cc2ccccn2)C[C@@H]1C` [Compound 34] was tested, and the “Average ALPHA signal” value was 1.29 (0.05).
With `CNc1ncccc1C(=O)N1CCN(Cc2ccccc2)[C@H](C)C1` [Compound 88] the “Average ALPHA signal” value was 2.17 (0.21).
For `CC(C)CCNc1ncccc1C(=O)N1CCN(C)C[C@H]1C` [Compound 50], the “Average ALPHA signal” value was 0.93 (0.05).
`CC(C)CCNc1ncccc1C(=O)N1CCN(Cc2ccccc2C(=O)O)CC1` [Compound 58] was tested, and the “Average ALPHA signal” value was 1.30 (0.05).
For `COC(=O)C[C@@H]1CN(C(=O)c2cccnc2NCCC(C)C)C[C@@H](C)N1Cc1ccccc1` [Compound 64], the EC50 was 0.00858 nM and the “Average ALPHA signal” value was 2.26 (0.07).
With `Cc1ccc(CN2CCN(C(=O)c3cccnc3NCCC(C)C)[C@H](C)C2)cc1` [Compound 45] the EC50 was 0.0113 nM and the “Average ALPHA signal” value was 3.50 (0.06).
`CCCCCCN1CCN(C(=O)c2cccnc2NCCC(C)C)[C@H](C)C1` [Compound 47] was tested, and the EC50 was 0.0125 nM and the “Average ALPHA signal” value was 7.81 (0.45).
With `COC(=O)C[C@H]1[C@@H](C)N(Cc2ccccc2)CCN1C(=O)c1cccnc1NCCC(C)C` [Compound 71] the “Average ALPHA signal” value was 2.47 (0.03).
`CC(C)CCNc1ncccc1C(=O)N1CCN(Cc2ccccc2)C[C@H]1CC(C)C` [Compound 93] was tested, and the “Average ALPHA signal” value was 3.46 (0.10).
With `COC(=O)C[C@H]1CN(Cc2ccccc2)[C@@H](C)CN1C(=O)c1cccnc1NCCC(C)C` [Compound 73] the “Average ALPHA signal” value was 2.69 (0.07).
In the case of `CC(C)CCNc1ncccc1C(=O)N1C[C@@H](CC(=O)O)N(Cc2ccccc2)[C@H](C)C1` [Compound 68], the “Average ALPHA signal” value is reported as 1.02 (0.03).

— patent US20240067625A1, “SMALL-MOLECULE MODULATORS OF THE ORPHAN NUCLEAR RECEPTOR TLX” (priority 2020, published 2024)
